Test results as given in PMC3432061, “Biochemical and Mass Spectrometric Characterization of Human N-Acylethanolamine-Hydrolyzing Acid Amidase Inhibition” (PLoS ONE, 2012).

How the values were obtained:
FAAH = test system: FAAH; parameters: method as in PMID 22270809; settings: cited from earlier work
hNAAA [1] = target: T1, hNAAA (Homo sapiens, UniProt Q02083); assay: MALDI-TOF MS and MS/MS analysis of tryptic digest of inhibitor treated hNAAA; settings: 10-fold molar excess of compound, 37°C, 2 hours, pH 4.5
T1 construct: the active mature form of the enzyme is a heterodimer, consisting of a non-covalent complex of the α- and β-subunits; hexa-histidine (C); made in house; host or cells: HEK293 (stably transfected)
T1 sequence (Q02083 126-359 limits assumed): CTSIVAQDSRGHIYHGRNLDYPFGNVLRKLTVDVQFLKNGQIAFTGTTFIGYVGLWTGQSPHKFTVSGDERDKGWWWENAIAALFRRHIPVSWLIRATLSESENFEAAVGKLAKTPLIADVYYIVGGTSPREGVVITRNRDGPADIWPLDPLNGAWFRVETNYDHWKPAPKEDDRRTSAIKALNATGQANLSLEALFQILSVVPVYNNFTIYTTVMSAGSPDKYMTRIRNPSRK
T1 sequence (Q02083 29-125 limits assumed): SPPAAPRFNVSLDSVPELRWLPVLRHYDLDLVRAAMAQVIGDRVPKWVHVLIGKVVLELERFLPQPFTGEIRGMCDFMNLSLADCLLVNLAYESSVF
Method: To 10 µg (0.2 nmol) of purified and activated NAAA in 18 µL of 100 mM citrate-sodium phosphate buffer (pH 4.5) 2 µL of a DMSO solution containing 2 nmol of the compound of interest were added or 2 µL DMSO. The inhibitor and DMSO treated enzyme solutions were incubated at 37°C for 2 hours and then desalted prior to digestion. These were desalted by re-concentrating 3 times to original volume after 25 fold dilution with 50 mM ammonium bicarbonate buffer, pH 8.0, using 10 kDa membrane Ultra-0.5 Centrifugal Filters (Millipore). The NAAA samples were incubated overnight at 37°C with MS-grade trypsin (“Trypsin Gold”, Promega) at a NAAA:trypsin mass to mass ratio of 100∶1. The tryptic digested NAAA was analyzed immediately or frozen at −80°C for future analysis.
0.5 µL of the trypsin digested NAAA was mixed with 0.5 µL α-cyano-4-hydroxycinnaminic acid matrix solution (5 mg/mL dissolved in 50% acetonitrile, 50% water, and 0.1% trifluoroacetic acid) and spotted onto an Opti-TOF 384-well plate insert. MALDI-TOF MS spectra were acquired on a 4800 MALDI TOF/TOF mass spectrometer (Applied Biosystems, Foster City, CA) fitted with a 200-Hz solid state UV laser (wavelength 355 nm). The spectra of the peptides were acquired in reflectron mode. The conditions used for the MS experiments and instrument calibration were performed as described by Zvonok et. al.

hNAAA [2] = target: T1, hNAAA; assay: 8 point radioactive assay, hydrolysis of [14C]N-palmitoylethanolamine by purified hNAAA; type: biochemical; settings: 2 hours preincubation, PEA 25 µM
Method: (§1) To set up 8 point fluorescent and radioactive assays for each point, the compound in 45 µL DMSO and purified activated NAAA (final enzyme concentration of 0.25 µg/mL) in 810 µL of NAAA assay buffer were incubated for 2 hours in order for the covalent compounds to reach full inhibition. For the fluorescent assays, 190 µL of each of the above samples (in triplicate) were transferred to a 96 well plate, followed by addition of 10 µL of a PAMCA stock solution in DMSO for a final PAMCA concentration of 10 µM. After 5 minutes of agitation on a shaking plate, the reaction was allowed to proceed at 37°C for 30 minutes and enzyme activity was monitored and calculated as previously described. The complete description of the novel fluorescent 8 point assay to determine the IC50 value for compounds inhibiting hNAAA activity will be detailed elsewhere.
The 8 point radioactive assays, similar to that described by Saturnino et. al., [10] were performed by taking 95 µL of the enzyme-compound solution described above and adding a 5 µL solution of [^1,2 −14C]N-palmitoylethanolamine (10,000 c.p.m./sample) in DMSO, with a final PEA concentration of 25 µM. The reaction was performed for 30 minutes at 37°C and terminated by addition of 200 µL chloroform/methanol (1∶1, v/v). The aqueous layer containing the [^1,2 −14C]Ethanolamine was quantified by reading with a 1450 Microbeta Walluc Trilux Liquid Scintillation and Luminescence Counter. Inhibition constants were calculated using pro Fit software (Quantum Soft, Uetikon am See, Switzerland) and a Levenberg-Marquardt algorithm.

hNAAA [3] = target: T1, hNAAA; assay: 8 point fluorescent assay, hydrolysis of PAMCA by purified hNAAA; type: biochemical; settings: for IC50: purified hNAAA, 2 hours preincubation, fluorescent assay, PAMCA 10 µM
Method: We previously described the fluorogenic substrate N-(4-methyl coumarin)palmitamide (PAMCA), which is hydrolyzed by NAAA to the fluorescent compound 7-amino-4-methyl coumarin (AMC) and palmitic acid. For hNAAA inhibition we conducted three point concentration assays with compounds to determine their potencies and ranges of enzyme inhibition. Purified activated NAAA (final concentration of 0.25 µg/mL) was incubated in assay buffer made up to a total volume of 180 µL, followed by addition of the compound dissolved in 10 µL DMSO (along with DMSO neat for the control sample) with the final concentrations for each compound of 1, 10, and 100 µM, in triplicate on a 96 well plate. These samples were allowed to incubate for 15 min at room temperature and then 10 µL of a PAMCA stock solution in DMSO (final PAMCA concentration 10 µM) was added. After 5 minutes of agitation on a shaking plate, the reaction was allowed to proceed at 37°C for 30 minutes and enzyme activity was monitored and calculated as previously described.
as §1

hNAAA [4] = target: T1, hNAAA; assay: Fluorometric assay to determine kinact/Ki for irreversible hNAAA inhibition; type: biochemical; settings: for kinact: PAMCA 12.4 µM = 2×Km, no preincubation, read for 120 minutes; for kinact/K I: second order rate constant
Method: The k inact and K I values for covalent inhibitors were determined similar to Mileni et. al. […] The data for each inhibitor concentration ([I]) were fit to a first order equation (Eq. 1) shown below using KaleidaGraph (Synergy Software, Reading, PA) in order to determine k observed (k obs), where Ft is the fluorescence at time t, F 0 is the fluorescence at t = infinite time, F 1 is the total fluorescence change, and k obs is the first order rate constant for enzyme inactivation. To determine the inhibitor dissociation constant (K I) and the first order rate constant for enzyme inactivation at infinite inhibitor concentration (k inact), the k obs values for each [I] obtained above were fit to a curve using pro Fit software and a Levenberg-Marquardt algorithm according to Eq. 2, which simplifies to Eq. 3 at [S] = 2×K m as used in this experiment. [drawing 1] (1) [drawing 2] (2) [drawing 3] (3)

hNAAA [5] = target: T1, hNAAA; assay: Rapid dilution experiment with hNAAA (reversibility); type: biochemical; settings: AM6701: 100 nM for 120 min, twenty-fold dilution to 5 nM, up to 24 h
hMGL = target: T2, hMGL (Homo sapiens, UniProt Q99685); assay: hMGL inhibition (selectivity); type: biochemical
T2 sequence (Q99685 1-303): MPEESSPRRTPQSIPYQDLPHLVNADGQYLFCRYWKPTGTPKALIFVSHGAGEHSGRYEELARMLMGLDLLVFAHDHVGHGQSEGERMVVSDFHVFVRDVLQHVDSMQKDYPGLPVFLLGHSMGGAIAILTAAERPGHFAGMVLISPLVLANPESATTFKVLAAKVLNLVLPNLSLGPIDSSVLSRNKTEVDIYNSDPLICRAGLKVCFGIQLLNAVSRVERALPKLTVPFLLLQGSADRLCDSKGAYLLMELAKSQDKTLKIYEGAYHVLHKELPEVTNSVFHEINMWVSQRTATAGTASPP

rFAAH = target: T3, rFAAH (Rattus norvegicus, UniProt P97612); assay: rFAAH inhibition (selectivity); type: biochemical
T3 sequence (P97612 1-579): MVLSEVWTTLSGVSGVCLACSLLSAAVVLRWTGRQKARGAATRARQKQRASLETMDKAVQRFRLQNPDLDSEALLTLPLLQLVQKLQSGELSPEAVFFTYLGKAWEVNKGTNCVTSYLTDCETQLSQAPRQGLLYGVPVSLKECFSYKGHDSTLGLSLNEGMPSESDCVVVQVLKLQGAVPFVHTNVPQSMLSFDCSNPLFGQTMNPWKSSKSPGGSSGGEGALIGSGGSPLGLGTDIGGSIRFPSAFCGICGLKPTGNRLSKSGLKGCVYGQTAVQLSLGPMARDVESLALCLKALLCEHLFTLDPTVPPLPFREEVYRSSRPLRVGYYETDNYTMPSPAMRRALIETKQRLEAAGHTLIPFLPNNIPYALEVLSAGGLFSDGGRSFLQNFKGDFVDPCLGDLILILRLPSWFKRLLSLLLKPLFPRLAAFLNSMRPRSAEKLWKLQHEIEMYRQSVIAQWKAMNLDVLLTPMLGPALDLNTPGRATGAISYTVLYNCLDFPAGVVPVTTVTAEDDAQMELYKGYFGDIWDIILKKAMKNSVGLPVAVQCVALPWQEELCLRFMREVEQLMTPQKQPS

hNAAA [6] = target: T1, hNAAA; assay: Lineweaver-Burk (double reciprocal) plot of hNAAA inhibition; type: biochemical
recombinant rat NAAA = settings: substrate heptadecenoylethanolamide, HEK293 cell lysate, LC/MS based assay; cited from earlier work
hNAAA [7] = target: T1, hNAAA; parameters: method as in PMID 22040171; settings: substrate of hNAAA; cited from earlier work

Row | SMILES | IC50 (FAAH) [nM] | Covalent modification of hNAAA seen by MALDI-TOF MS of tryptic digest (hNAAA [1]) | IC50 (hNAAA [2]) [nM] | Decrease of IC50 on extension of preincubation time to 120 min (hNAAA [3]; hNAAA, data not presented) | IC50 (hNAAA [3]) [nM] | kinact (hNAAA [4]) [s⁻¹] | kinact/K I (hNAAA [4]) [M⁻¹ s⁻¹] | Recovery of enzyme activity after rapid dilution (hNAAA [5]) | Effect of longer pre-incubation on IC50 (hNAAA [3]; hNAAA) | IC50 (hMGL) [nM] | IC50 (rFAAH) [nM] | Type of inhibition (Lineweaver-Burk plot) (hNAAA [6]) | IC50 (recombinant rat NAAA) [nM] | Km (hNAAA [7]) [µM]
1 | CN(C)C(=O)n1nnc(Cc2ccc(-c3ccccc3)cc2)n1 [AM6701, 5-((biphenyl-4-yl)methyl)-N,N-dimethyl-2H-tetrazole-2-carboxamide] | 1.2 | carbamylation of the N-terminal cysteine | 7.2 ± 2.5 | more than 50 fold | 7.7 ± 0.2 | 0.0007 | 55000 | no recovery of enzyme activity | – | – | – | – | – | –
2 | CCCCCCCCCCCCCCCN=C=S [AM9023, 1-isothiocyanatopentadecane] | – | identical | 600 ± 130 | – | 350 ± 70 | – | – | fully recovered | unaffected | > 10000 | > 10000 | competitive type inhibitor | – | –
3 | O=C(N[C@H]1COC1=O)OCc1ccccc1 [N-Cbz-serine β-lactone, N-Benzyloxycarbonyl-L-serine β-lactone, reference compound] | – | Cys126 modified by the inhibitor | 1900 ± 500 | – | 1700 ± 200 | 0.000383 | 290 | slow regeneration of enzyme catalytic activity | – | – | – | – | 2960 ± 300 | –
4 | CCCCCCCCCCCCCCCC(=O)NCCO [PEA, N-palmitoylethanolamine] | – | – | – | – | – | – | – | – | – | – | – | – | – | 21
5 | CCCCCCCCCCCCCCCC(=O)Nc1ccc2c(C)cc(=O)oc2c1 [PAMCA, N-(4-methylcoumarin)palmitamide] | – | – | – | – | – | – | – | – | – | – | – | – | – | 6.2
